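Protocol summary: plate cells (96-well), add compound at 5 concentrations, incubate 48 h, interpolate endpoints linearly. GI50: concentration for 50% inhibition of growth.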 Calls of active or inactive are those of the source. No stated cut-off is given here; in the data, active = GI50 up to about 1.1 µM and inactive = higher.
Experiments:
Experiment in all cases: NCI tumour cell line growth inhibition, 48 h
[1] = tested on: OVCAR-5
[2] = tested on: SNB-75
[3] = tested on: NCI-H460
[4] = tested on: HL-60
[5] = tested on: BT-549
[6] = tested on: SW-620
[7] = tested on: RXF 393
[8] = tested on: NCI-H23
[9] = tested on: NCI-H226
[10] = tested on: LXFL 529
[11] = tested on: SK-OV-3
[12] = tested on: UO-31
[13] = tested on: M19-MEL
[14] = tested on: LOX IMVI
[15] = tested on: 786-0
[16] = tested on: HCC 2998
[17] = tested on: DU-145
[18] = tested on: K562
[19] = tested on: T47D
[20] = tested on: SNB-78
[21] = tested on: HOP-62
[22] = tested on: UACC-62
[23] = tested on: HCT-116
[24] = tested on: DMS-114
[25] = tested on: RPMI-8226
[26] = tested on: ACHN
[27] = tested on: HOP-92
[28] = tested on: NCI-H522
[29] = tested on: HCT-15
[30] = tested on: KM-20L2
[31] = tested on: NCI/ADR-RES
[32] = tested on: A549
[33] = tested on: MDA-N
[34] = tested on: Hs-578T
[35] = tested on: SK-MEL-28
[36] = tested on: EKVX
[37] = tested on: TK-10
[38] = tested on: IGROV-1
[39] = tested on: U-251
[40] = tested on: Malme-3M
[41] = tested on: OVCAR-8
[42] = tested on: CCRF-CEM
[43] = tested on: MOLT-4
[44] = tested on: A498
[45] = tested on: SF-539
[46] = tested on: UACC-257
[47] = tested on: DLD-1
[48] = tested on: PC-3
[49] = tested on: HOP-18
[50] = tested on: COLO 205
[51] = tested on: HT-29
[52] = tested on: SK-MEL-2
[53] = tested on: MDA-MB-231
[54] = tested on: M14
[55] = tested on: MCF7
[56] = tested on: SK-MEL-5
[57] = tested on: SF-295
[58] = tested on: SN12C
[59] = tested on: SF-268
[60] = tested on: XF498
[61] = tested on: OVCAR-3
[62] = tested on: SR
[63] = tested on: OVCAR-4
[64] = tested on: SNB-19
[65] = tested on: MDA-MB-435
[66] = tested on: KM12
[67] = tested on: CAKI-1
[68] = tested on: DMS-273

Measured: GI50

Cc1cc(NC(=O)NC(=O)c2ccccc2N(C)C)ccc1Oc1ncc(Br)cn1
202 nM: [29]
inactive: [1] 8110 nM | [8] 1170 nM | [9] 9270 nM | [12] 2040 nM | [19] 1610 nM | [26] 3050 nM | [27] 1300 nM | [36] 1960 nM | [37] 4510 nM | [38] 1460 nM | [49] > 100000 nM | [53] 1450 nM | [58] 1740 nM | [63] 6680 nM
active: [2] 135 nM | [3] 403 nM | [4] 73 nM | [5] 731 nM | [6] 301 nM | [7] 656 nM | [10] 390 nM | [11] 437 nM | [13] 455 nM | [14] 369 nM | [15] 425 nM | [16] 530 nM | [17] 1060 nM | [18] 119 nM | [20] 1050 nM | [21] 659 nM | [22] 301 nM | [23] 439 nM | [24] 219 nM | [25] 451 nM | [28] 210 nM | [30] 284 nM | [31] 361 nM | [32] 705 nM | [33] 30.2 nM | [34] 267 nM | [35] 640 nM | [39] 497 nM | [40] 425 nM | [41] 1100 nM | [42] 237 nM | [43] 1080 nM | [44] 290 nM | [45] 267 nM | [46] 410 nM | [47] 373 nM | [48] 333 nM | [50] 780 nM | [51] 305 nM | [52] 733 nM | [54] 957 nM | [55] 249 nM | [56] 179 nM | [57] 224 nM | [59] 977 nM | [60] 288 nM | [61] 290 nM | [62] 54.1 nM | [64] 532 nM | [65] 42.4 nM | [66] 359 nM

COC1=CC(=O)C=C(OC)C1=O [2,6-DIMETHOXYQUINONE]
inactive: [1] 28100 nM | [2] 27900 nM | [3] 23700 nM | [4] 3940 nM | [6] 6370 nM | [7] 7960 nM | [8] 7660 nM | [9] 1550 nM | [11] 17900 nM | [12] 23600 nM | [13] 4220 nM | [14] 5140 nM | [67] 50400 nM | [16] 27900 nM | [18] 7100 nM | [20] 16800 nM | [21] 25300 nM | [22] 5330 nM | [23] 6490 nM | [24] 5810 nM | [25] 6000 nM | [27] 4160 nM | [28] 7050 nM | [30] 30000 nM | [31] 5010 nM | [32] 57100 nM | [35] 21800 nM | [36] 5690 nM | [68] 36100 nM | [38] 11300 nM | [39] 31600 nM | [40] 20200 nM | [41] 8930 nM | [42] 1380 nM | [43] 1490 nM | [44] 2490 nM | [45] 16800 nM | [46] 10200 nM | [47] 8870 nM | [49] 45800 nM | [50] 12600 nM | [51] 27400 nM | [52] 6550 nM | [55] 17700 nM | [56] 20900 nM | [57] 13300 nM | [58] 15600 nM | [59] 6460 nM | [60] 2990 nM | [61] 4780 nM | [63] 7430 nM | [64] 13600 nM | [66] 16400 nM
31600 nM: [29]

Source: ChEMBL document CHEMBL1201862, “PubChem BioAssay data set” (2004)
